Our source for the TIFs values is patent US20190282600A1, “COMBINATION THERAPIES TARGETING TERT DEPENDENCY FOR CANCER THERAPY” (The Wistar Institute of Anatomy and Biology, priority 2018, published 2019).

In this assay the test system is NRAS mutant melanoma cells. Kind of assay: Telomere dysfunction-induced foci (TIF) assay, IF-FISH. Format: cell-based, Human. The following applies: 6-thio-dG for 7 days. On the procedure:
NRAS mutant melanoma cells WM3000 were transduced with TERT shRNA and treated with NAC (mM) for 7 days. […] Representative images are shown. (scale bar=10 μm). Quantification of TIF positive cells is plotted in FIG. 13b. Cells were scored as TIF positive when three or more g-H2AX foci (green) were co-localizing with telomere foci (red). Data represent average of thirteen fields imaged +/−SD.
NRAS^mut melanoma cells were treated with 6-thio-dG for 6, 12 or 18 days. As presented in FIG. 15a, relative cell number was assessed by Crystal Violet assay and calculated relative to DMSO-treated cells. Data represent average of three independent experiments +/−SD. […] NRAS^mut cells were treated with 6-thio-dG for 7 days and telomere induced foci (TIF) was determined by indirect immunofluorescence combined with fluorescence in situ hybridization (FISH) (FIG. 15c). […] Quantification of TIF assay is plotted in FIG. 15d. Cells were scored as TIF positive when four or more γ-H2AX foci (green, center row of FIG. 15c labelled as γH2AX) were co-localizing with telomere foci (red, top row of FIG. 15c labelled as Telomeres). […] P values were calculated by unpaired Student's t-test.
For TIF analysis, indirect immunofluorescence (IF) combined with fluorescence in situ hybridization (FISH) was performed as previously described with some modifications. […] TIF were quantified from at least three independent experiments.

Regarding `Nc1nc2c(ncn2[C@H]2C[C@H](O)[C@@H](CO)O2)c(=S)[nH]1` [6-thio-dG, 6-thio-2′-deoxyguanosine], the TIFs result is “increased levels”.
